The results in this text go back to patent US20080009025A1, “PROTEIN KINASE REGULATION” (priority 1999, published 2008).

In experiment [1] the target is T1, PDK1 (Homo sapiens, UniProt O15530).
T1 construct: Full length PDK1 (residues 1-556); made in house; host or cells: 293 cells
T1 sequence (O15530 52-556): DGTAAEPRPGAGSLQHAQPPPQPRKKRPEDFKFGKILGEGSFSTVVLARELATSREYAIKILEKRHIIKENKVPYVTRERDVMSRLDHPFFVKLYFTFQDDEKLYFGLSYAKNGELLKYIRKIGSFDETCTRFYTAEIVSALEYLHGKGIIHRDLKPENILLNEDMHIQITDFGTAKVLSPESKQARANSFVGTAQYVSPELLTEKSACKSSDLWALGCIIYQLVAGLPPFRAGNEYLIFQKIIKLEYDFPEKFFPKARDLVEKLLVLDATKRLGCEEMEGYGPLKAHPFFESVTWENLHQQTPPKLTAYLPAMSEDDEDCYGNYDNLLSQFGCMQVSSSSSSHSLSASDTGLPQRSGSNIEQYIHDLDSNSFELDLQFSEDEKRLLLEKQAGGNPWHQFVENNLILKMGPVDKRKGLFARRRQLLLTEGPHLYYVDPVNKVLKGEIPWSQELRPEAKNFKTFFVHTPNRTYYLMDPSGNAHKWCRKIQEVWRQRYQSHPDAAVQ
Put plainly: PDK1 activity towards synthetic peptide substrates T308tide or PDKtide. It counts as biochemical. The settings on record: substrate PDKtide. How it is done:
(§1) FIG. 12. PDK1 is activated and stabilised through its interaction with PIFtide. (A) GST-PDK1 activity was measured in the presence of increasing concentrations of wild type (wt) PIFtide (closed circles) or a mutant D978A PIFtide (open circles) using the synthetic peptide substrate termed T308tide, as described in Material and Methods. The data was fitted to a hyperbola using the Kaleidagraph™ software. The connection needed to obtain 50% activation of PDK1 was […] for wt-PIFtide and 1.1 μM for D978A-PIFtide. The assay shown was performed in triplicate and there was less than 5% difference between each assay. Similar results were obtained in 2 further experiments (B)—The wild type GST-PDK1 (circles) or the L155D mutant of GST-PDK1 (squares) was incubated in the presence (closed symbols) or absence (open symbols) of […] PIFtife and then for 2 min at the indicated temperatures, rapidly brought to 0° C. (see Materials and Methods), and 2 min later assayed at 30° C. for 10 min using T308tide as substrate. The activity of PDK1 obtained by incubation at 30° C. was taken as 100%. The assay shown was performed in duplicate with similar results obtained in two separate experiments.
(§2) FIG. 14. […] (A) His-PDK1 was assayed for activity using as substrate the indicated concentration of either PDKtide (open triangles) or T308tide (open circles). (B) HIS-PDK1 was assayed for activity in the presence if PDKtide (25 μM closed triangles) or T308tide (100 μM closed circles) in the presence of the indicated concentrations of PIFtide. The assay was performed in triplicates with less than 5% difference between the triplicate samples. Similar results were obtained in 3 separate experiments.
(§3) PDK1's ability to phosphorylate Thr308 of PKBα was measured using a mutant of GST-PKBα in which Ser473 was mutated to Asp (GST-473D PKBα) in the presence of phospholipid vesicles containing sn-1-stearoyl-2-arachidonoyl-D-PtdIns (3, 4, 5)P3 [13]. The ability of wild type and mutant PDK1 to phosphorylate the synthetic peptides T308tide or PDKtide was carried out in 20 μl assays containing 50 mM Tris/HCl pH 7.5, 0.1% 2-mercaptoethanol 10 mM MgCl2, 100 μM [γ^32P]ATP (˜500 cpm/pmol) 0.5 μM microcystin-LR.PDK1 and the peptide concentrations indicated under Results. After incubation for 10 min at 30° C. the reaction was stopped by addition of 20 μl of 150 mM phosphoric acid. 35 μl of the resultant mixture was spotted into P81 phosphocellulose paper (2×2 cm) and the papers washed and analysed as described previously for assays of MAP kinase. […] Control assays were carried out in parallel in which either PDK1, or peptide substrate were omitted; these values were always less than 5% of the activity measured in the presence of these reagents. […]

For experiment [2], the system named is PDK1. Described as above. The experiment is classed as biochemical, human. The settings on record: PDK1 L155 mutants. As to the method: as §1, §2, §3

Where a SMILES comes first, the peptide text is derived from it.

For `CC[C@H](C)[C@H](NC(=O)[C@H](Cc1ccc(O)cc1)NC(=O)[C@H](CC(=O)O)NC(=O)[C@H](Cc1ccccc1)NC(=O)[C@H](CC(=O)O)NC(=O)[C@H](CCCNC(=N)N)NC(=O)[C@H](Cc1ccccc1)NC(=O)[C@H](CCSC)NC(=O)[C@H](CCC(=O)O)NC(=O)[C@H](CCC(N)=O)NC(=O)[C@H](CCC(=O)O)NC(=O)[C@H](CCC(=O)O)NC(=O)[C@H](CCC(=O)O)NC(=O)[C@H](CO)NC(=O)[C@H](CC(C)C)NC(=O)[C@@H](NC(=O)[C@H](CCCNC(=N)N)NC(=O)[C@@H]1CCCN1C(=O)[C@H](CCC(=O)O)NC(=O)[C@@H](N)CCCNC(=N)N)[C@@H](C)CC)C(=O)N[C@@H](C)C(=O)N[C@@H](CC(=O)O)C(=O)N[C@@H](Cc1c[nH]c2ccccc12)C(=O)N[C@@H](CS)C(=O)O` [PIFtide] (H-REPRILSEEEQEMFRDFDYIADWC-OH; N-terminus and C-terminus assumed), on PDK1 [1], the “effect on the activity of PDK1 towards PDKtide” value is on record as “inhibited”. For the same molecule, in the experiment on PDK1 [2], the “activation of L155A, L155S, L155D and L155E mutants of PDK1 towards T308tide” value was “did not further activate”.
